Reference: publication PMC8126811, “Clinical translation of choline and geranic acid deep eutectic solvent” (Bioengineering & Translational Medicine, 2020)

How the values were obtained:
[1] = Human cadaver skin permeation evaluation (static Franz cells); type: in vitro ADME
Description: Dermatomed full thickness human cadaver skin samples, 250–350 μm, were mounted onto static Franz cells. […] Phosphate buffered saline, pH 7.4 was used as the receptor medium. CGB400 gel was applied to the SC side of the skin samples at a dose of ~15 μl/cm^2 (~15 mg/cm^2). The cells were kept in a chamber at 37°C for a period of 24 h. Stirrers in the receptor chamber ensured that the receptor media was well mixed during this time. The receptor media was sampled at 4, 7, and 24 h to quantify the amount of choline and geranic acid permeation. After 24 h, the skin surface was washed before removing the SC by tape stripping. The SC was stripped from the epidermis using an adhesive tape up to 10 layers (SC1, SC2‐5, SC6‐10). Following SC removal, the epidermis was separated from the dermis using a surgical sterile scalpel and the dermis was cut into pieces. Each layer was collected separately in glass vials containing 2 ml of 50:50 water:methanol mixture and was left to shake overnight to extract the choline and geranic acid. The amount of choline and geranic acid was measured using LC–MS/MS in the wash, epidermis, dermis, and the receptor medium.

[2] = octanol-water partition coefficient; no reference given; cited from earlier work

Molecule: Choline geranate [CAGE1:2]
- applied CAGE1:2 dose penetrated into the dermis [1]: About 9.5%
- molar ratio of choline to geranic acid in the epidermis [1]: 1.18

Molecule: C[N+](C)(C)CCO [choline]
- LogP [2]: −3.7

Molecule: CC(C)=CCC/C(C)=C/C(=O)O [geranic acid]
- LogP [2]: 2.8
